From publication PMC6521623, “DIRAS3-Derived Peptide Inhibits Autophagy in Ovarian Cancer Cells by Binding to Beclin1” (Cancers, 2019) come the findings set out here.

For one assay, the target named is T1, full-length Beclin1 (Homo sapiens, UniProt Q14457).
T1 construct: His tag (pQTEV vector, TEV site) (cleaved yes); made in house; host or cells: Escherichia coli BL21 (DE3), by analogy with the DIRAS2/3 chimera
Put plainly: SPR affinity of biotinylated D3S2 peptide for Beclin1. Format: binding. Particulars: SPR Biacore 3000, 25 °C, c-terminal biotinylated D3S2 on SA chip, Beclin1 10 to 270 nM, Langmuir 1:1 fit, unit inferred. The protocol:
A DIRAS2/3 chimera construct was generated by replacing the amino acid residues 92–108 of DIRAS3 with 62–78 amino acid residues of DIRAS2. The DIRAS2/3 chimera construct was cloned into pQTEV vector using ligation-independent cloning and transformed into BL21 (DE3) Escherichia coli cells. Cells carrying the DIRAS2/3 chimera constructs were grown at 37 °C until the OD at 600 nm (OD600) reached to 0.6 and protein expression was induced with 0.5 mM isopropyl β-D-1-thiogalactopyranoside. Cultures were grown for an additional 12 h at 18 °C and harvested by centrifugation. Cells were resuspended in lysis buffer containing 50 mM Tris (pH 7.5), 150 mM sodium chloride, 10 mM magnesium chloride, 10 mM Imidazole, 5% glycerol and 1 mM β-mercaptoethanol and lysed using a cell disrupter (Constant Systems, Northamptonshire, UK). The lysate was cleared by centrifugation at 35,000 × g for 2 h at 4 °C. Cleared lysate was passed through a 0.22-μm filter. […]
SPR experiments were performed using a Biacore 3000 optical biosensor (GE Healthcare/Biacore AB) at 25 °C. […] Reference and buffer corrected SPR response was collected and the data was analyzed using Biacore evaluation software. The kinetic parameters and KD value were determined by fitting the sensorgram to a Langmuir 1:1 binding model (BIAevaluation version 4.1.1, GE Healthcare/Biacore AB, Marlborough, MA, USA).

The target of assay [1] is T2, Beclin1 recombinant protein (UniProt Q14457 1-450).
T2 construct: Beclin1 (BECN1); called full-length Beclin1 in the SPR experiment; The construct is not described beyond 'produced in a similar fashion'; For the chimera the His tag was cleaved with TEV protease; whether this also holds for Beclin1 is surmised; also called BECN1; full-length Beclin1; source: recombinant
Kind of assay: peptide or protein array; 15mer peptide array of DIRAS3 residues 1-229 on membrane, overlaid with recombinant Beclin1 at 1 µg/mL in 1% BSA/PBS, 2 h at room temperature; detected with primary and secondary antibody, HRP. The following applies: both partners purified.

Ends that are not written are not given here.

T1 sequence (Q14457 whole entry): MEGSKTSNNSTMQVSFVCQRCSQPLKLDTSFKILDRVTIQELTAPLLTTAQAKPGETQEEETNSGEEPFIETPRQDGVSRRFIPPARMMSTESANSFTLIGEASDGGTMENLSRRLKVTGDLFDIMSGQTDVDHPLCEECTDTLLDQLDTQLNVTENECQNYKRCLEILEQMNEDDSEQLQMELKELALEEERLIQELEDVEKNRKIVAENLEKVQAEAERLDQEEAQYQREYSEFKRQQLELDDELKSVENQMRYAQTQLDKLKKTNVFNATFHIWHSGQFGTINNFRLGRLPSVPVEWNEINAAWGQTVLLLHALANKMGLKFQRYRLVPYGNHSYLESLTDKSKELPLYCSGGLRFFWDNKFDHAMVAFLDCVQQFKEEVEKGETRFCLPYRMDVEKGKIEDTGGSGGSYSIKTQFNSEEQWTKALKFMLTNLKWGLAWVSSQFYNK
T2 sequence (Q14457 whole entry): as above

For the molecule SKSGDGNRALQRHVIAR [D3S2], the kon on full-length Beclin1 (read-out: association rate constant (ka)) was 62200 M⁻¹ s⁻¹. In addition, the koff at full-length Beclin1 (read-out: dissociation rate constant (kd)) worked out at 0.000125 s⁻¹.

B1: DIRAS3 switch II region peptide on the DIRAS3 peptide array (residues 93-107) (peptide, UniProt O95661 93-107, looked up)
peptide: KSGDGNRALQRHVIA
notes: source: synthetic peptide, SPOT synthesis on membrane (MultiPep RS robot)
On to B1, for which the binding result in assay [1] is listed as “binds”.

B2: DIRAS3 N-terminus peptides on the DIRAS3 peptide array (residues 15-33) (peptide, UniProt O95661 15-33, looked up)
peptide: KRLRLLPALLILRAFKPHR
notes: DIRAS3, residues 15-33 (N-terminus), a stretch covered by overlapping 15mer peptides of an array covering residues 1-229; The stretch is longer than one 15mer, so several overlapping array spots are meant; also called N-terminus of DIRAS3 (residues 15-33); source: synthetic peptide, SPOT synthesis on membrane (MultiPep RS robot)
On to B2, for which, in assay [1], the binding result is on record as “binds”.
